Measured values: patent publication US7981903B2, “2-[2-{phenylamino}-1H-pyrrolo[2,3-D]pyrimidin-4-yl)amino] benzamide derivatives as IGF-1R inhibitors for the treatment of cancer” (GlaxoSmithKline LLC, priority 2007, dated 2011)

Experiments:
Format in all cases: cell-based
[1] = tested on: Colo205; test: Inhibition of cell proliferation (CellTiter-Glo or InCell analyzer), Colo205; conditions: Homo sapiens, COLO 205, 72 h / 3 days, values given as IC50 category
Method in brief: In one

[2] = tested on: NCI-H929; test: Inhibition of cell proliferation (CellTiter-Glo or InCell analyzer), NCI-H929; conditions: Homo sapiens, 72 h / 3 days, values given as IC50 category
Method in brief: In one

[3] = target: T1, NIH-3T3 cells overexpressing human IGF-1R (Homo sapiens, UniProt P08069); test: IGF-1R cellular autophosphorylation (DELFIA)
T1 construct: expressed in transfected cells; host or cells: NIH-3T3 (mouse fibroblasts)
T1 sequence (P08069 31-1367): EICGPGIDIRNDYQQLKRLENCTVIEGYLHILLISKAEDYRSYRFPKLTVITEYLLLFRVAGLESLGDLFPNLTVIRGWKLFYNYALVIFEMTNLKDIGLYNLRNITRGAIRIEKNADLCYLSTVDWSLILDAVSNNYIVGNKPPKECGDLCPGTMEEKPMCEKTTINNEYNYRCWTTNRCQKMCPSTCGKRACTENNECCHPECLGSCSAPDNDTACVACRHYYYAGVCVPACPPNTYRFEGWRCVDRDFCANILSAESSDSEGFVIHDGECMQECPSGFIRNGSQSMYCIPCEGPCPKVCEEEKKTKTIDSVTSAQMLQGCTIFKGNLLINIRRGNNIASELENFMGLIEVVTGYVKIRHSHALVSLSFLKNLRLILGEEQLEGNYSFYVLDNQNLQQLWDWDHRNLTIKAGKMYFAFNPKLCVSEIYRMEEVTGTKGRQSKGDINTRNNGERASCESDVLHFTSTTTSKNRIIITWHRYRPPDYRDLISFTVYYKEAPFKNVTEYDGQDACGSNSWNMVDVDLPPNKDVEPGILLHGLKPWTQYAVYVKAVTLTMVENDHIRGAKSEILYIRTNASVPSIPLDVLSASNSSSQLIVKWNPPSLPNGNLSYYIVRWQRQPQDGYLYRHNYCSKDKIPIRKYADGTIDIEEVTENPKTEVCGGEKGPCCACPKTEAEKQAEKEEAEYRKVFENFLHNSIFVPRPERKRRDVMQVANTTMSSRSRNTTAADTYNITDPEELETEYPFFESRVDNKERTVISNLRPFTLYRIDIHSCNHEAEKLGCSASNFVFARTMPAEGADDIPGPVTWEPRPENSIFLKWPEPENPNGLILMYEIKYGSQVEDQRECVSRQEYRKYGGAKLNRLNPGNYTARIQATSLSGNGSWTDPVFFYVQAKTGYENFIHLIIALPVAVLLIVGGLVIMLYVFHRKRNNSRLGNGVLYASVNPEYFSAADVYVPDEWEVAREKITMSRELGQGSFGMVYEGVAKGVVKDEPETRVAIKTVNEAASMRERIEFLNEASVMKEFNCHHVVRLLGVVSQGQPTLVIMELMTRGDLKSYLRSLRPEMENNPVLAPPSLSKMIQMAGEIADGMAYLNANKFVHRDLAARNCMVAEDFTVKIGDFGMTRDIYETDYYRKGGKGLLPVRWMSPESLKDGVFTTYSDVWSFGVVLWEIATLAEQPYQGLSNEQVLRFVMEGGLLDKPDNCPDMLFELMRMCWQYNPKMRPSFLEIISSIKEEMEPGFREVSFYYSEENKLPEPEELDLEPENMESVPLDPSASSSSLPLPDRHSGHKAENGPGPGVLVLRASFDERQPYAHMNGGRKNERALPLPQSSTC
Method in brief: (§1)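 Receptor autophosphorylation measured by DELFIA, capturing IGF-1R or IRβ and detecting with europium anti-pTyr, reported as percent of IGF-1- or insulin-stimulated signal. Compounds (30 uM to 1.5 nM) added 2 h before ligand, then 15 min stimulation (IGF-1 30 ng/ml or insulin 3 ug/ml).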

[4] = target: T2, NIH-3T3 cells overexpressing human IR (Homo sapiens, UniProt P06213); test: IR cellular autophosphorylation (DELFIA); conditions: 2 h compound, insulin 3 ug/ml for 15 minutes, IC50 category
T2 construct: expressed in transfected cells; host or cells: NIH-3T3 (mouse fibroblasts)
T2 sequence (P06213 28-1382): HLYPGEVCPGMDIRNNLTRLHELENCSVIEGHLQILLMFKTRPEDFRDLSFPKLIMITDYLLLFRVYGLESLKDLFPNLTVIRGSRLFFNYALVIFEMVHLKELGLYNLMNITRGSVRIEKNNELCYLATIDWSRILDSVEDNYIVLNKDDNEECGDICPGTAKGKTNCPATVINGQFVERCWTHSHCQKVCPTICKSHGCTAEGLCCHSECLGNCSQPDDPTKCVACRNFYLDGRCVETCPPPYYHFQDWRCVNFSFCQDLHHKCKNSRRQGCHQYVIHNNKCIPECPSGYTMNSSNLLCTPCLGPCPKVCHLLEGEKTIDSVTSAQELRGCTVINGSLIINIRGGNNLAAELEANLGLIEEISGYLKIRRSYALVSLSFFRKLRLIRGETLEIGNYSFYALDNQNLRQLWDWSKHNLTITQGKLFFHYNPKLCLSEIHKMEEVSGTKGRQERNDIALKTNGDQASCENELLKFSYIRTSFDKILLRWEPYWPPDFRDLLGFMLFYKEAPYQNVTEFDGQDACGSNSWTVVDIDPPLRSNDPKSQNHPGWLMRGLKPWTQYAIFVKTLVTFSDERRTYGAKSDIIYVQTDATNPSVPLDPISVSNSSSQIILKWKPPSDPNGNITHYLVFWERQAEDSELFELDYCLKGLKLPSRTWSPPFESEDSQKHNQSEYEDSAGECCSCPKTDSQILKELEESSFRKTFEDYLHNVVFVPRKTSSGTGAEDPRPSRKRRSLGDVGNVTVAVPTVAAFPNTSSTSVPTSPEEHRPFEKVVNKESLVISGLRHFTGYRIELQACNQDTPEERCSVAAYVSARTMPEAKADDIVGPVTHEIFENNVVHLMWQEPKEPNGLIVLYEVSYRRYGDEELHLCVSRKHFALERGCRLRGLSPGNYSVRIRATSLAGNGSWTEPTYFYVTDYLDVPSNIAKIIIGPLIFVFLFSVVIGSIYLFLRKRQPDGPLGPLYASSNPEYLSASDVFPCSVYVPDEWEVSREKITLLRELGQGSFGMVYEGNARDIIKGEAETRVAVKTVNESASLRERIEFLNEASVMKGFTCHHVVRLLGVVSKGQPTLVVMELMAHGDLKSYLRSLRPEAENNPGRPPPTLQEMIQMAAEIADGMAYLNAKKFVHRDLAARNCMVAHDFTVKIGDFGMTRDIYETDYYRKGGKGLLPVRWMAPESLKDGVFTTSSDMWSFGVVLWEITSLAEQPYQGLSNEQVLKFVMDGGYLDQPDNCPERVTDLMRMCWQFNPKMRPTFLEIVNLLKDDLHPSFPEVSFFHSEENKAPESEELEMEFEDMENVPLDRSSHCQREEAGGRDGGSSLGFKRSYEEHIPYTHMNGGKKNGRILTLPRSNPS
Method in brief: as §1

IC50 [1] [nM] | IC50 [2] [nM] | IC50 [3] [nM] | IC50 [4] [nM] | SMILES
< 250 | < 250 | < 100 | < 100 | COc1cc2c(cc1Nc1nc(Nc3cc(F)cc(F)c3C(N)=O)c3cc[nH]c3n1)N(C(=O)CN1CCCC1)CCC2 [Example 219, 2,4-difluoro-6-[(2-{[6-(methyloxy)-1-(1-pyrrolidinylacetyl)-1,2,3,4-tetrahydro-7-quinolinyl]amino}-1H-pyrrolo[2,3-d]pyrimidin-4-yl)amino]benzamide]
> 1000 | > 1000 | 100 to 500 | > 500 | COc1cc2c(cc1Nc1nc(Nc3cc(F)cc(F)c3C(N)=O)c3cc[nH]c3n1)NCCC2 [Example 220, 2,4-difluoro-6-[(2-{[6-(methyloxy)-1,2,3,4-tetrahydro-7-quinolinyl]amino}-1H-pyrrolo[2,3-d]pyrimidin-4-yl)amino]benzamide]
250 to 1000 | < 250 | < 100 | < 100 | CNC(=O)c1c(F)cc(F)cc1Nc1nc(Nc2cc3c(cc2OC)CCCN3C(=O)CN2CCCC2)nc2[nH]ccc12 [Example 221, 2,4-difluoro-N-methyl-6-[(2-{[6-(methyloxy)-1-(1-pyrrolidinylacetyl)-1,2,3,4-tetrahydro-7-quinolinyl]amino}-1H-pyrrolo[2,3-d]pyrimidin-4-yl)amino]benzamide]
> 1000 | 250 to 1000 | > 500 | > 500 | CNC(=O)c1c(F)cccc1Nc1nc(Nc2cc3c(cc2OC)CCC(=O)N3)nc2[nH]ccc12 [Example 222, 2-fluoro-N-methyl-6-[(2-{[6-(methyloxy)-2-oxo-1,2,3,4-tetrahydro-7-quinolinyl]amino}-1H-pyrrolo[2,3-d]pyrimidin-4-yl)amino]benzamide]
> 1000 | 250 to 1000 | > 500 | > 500 | COc1cc2c(cc1Nc1nc(Nc3cccc(F)c3C(N)=O)c3cc[nH]c3n1)CN(C(=O)CCN1CCN(C(C)C)CC1)CC2 [Example 229, 2-fluoro-6-[(2-{[2-{3-[4-(1-methylethyl)-1-piperazinyl]propanoyl}-6-(methyloxy)-1,2,3,4-tetrahydro-7-isoquinolinyl]amino}-1H-pyrrolo[2,3-d]pyrimidin-4-yl)amino]benzamide]
> 1000 | 250 to 1000 | > 500 | 100 to 500 | COc1cc2c(cc1Nc1nc(Nc3cccc(F)c3C(N)=O)c3cc[nH]c3n1)CN(C(=O)CCN(C)C)CC2 [Example 230, 2-[(2-{[2-(N,N-dimethyl-β-alanyl)-6-(methyloxy)-1,2,3,4-tetrahydro-7-isoquinolinyl]amino}-1H-pyrrolo[2,3-d]pyrimidin-4-yl)amino]-6-fluorobenzamide]
> 1000 | 250 to 1000 | 100 to 500 | > 500 | COc1cc2c(cc1Nc1nc(Nc3cccc(F)c3C(N)=O)c3cc[nH]c3n1)CN(C(=O)CCN1CCOCC1)CC2 [Example 231, 2-fluoro-6-{[2-({6-(methyloxy)-2-[3-(4-morpholinyl)propanoyl]-1,2,3,4-tetrahydro-7-isoquinolinyl}amino)-1H-pyrrolo[2,3-d]pyrimidin-4-yl]amino}benzamide]
> 1000 | < 250 | > 500 | > 500 | COc1cc2c(cc1Nc1nc(Nc3cccc(F)c3C(N)=O)c3cc[nH]c3n1)CN(CCCN(C)C)CC2 [Example 232, 2-[(2-{[2-[3-(dimethylamino)propyl]-6-(methyloxy)-1,2,3,4-tetrahydro-7-isoquinolinyl]amino}-1H-pyrrolo[2,3-d]pyrimidin-4-yl)amino]-6-fluorobenzamide]
> 1000 | < 250 | > 500 | > 500 | CNC(=O)c1c(F)cccc1Nc1nc(Nc2cc3c(cc2OC)CCN(C(C)C)C3)nc2[nH]ccc12 [Example 235, 2-fluoro-N-methyl-6-[(2-{[2-(1-methylethyl)-6-(methyloxy)-1,2,3,4-tetrahydro-7-isoquinolinyl]amino}-1H-pyrrolo[2,3-d]pyrimidin-4-yl)amino]benzamide]
> 1000 | 250 to 1000 | > 500 | 100 to 500 | CCC(C)N1CCc2cc(OC)c(Nc3nc(Nc4cccc(F)c4C(=O)NC)c4cc[nH]c4n3)cc2C1 (centres unmarked) [Example 238, 2-fluoro-N-methyl-6-[(2-{[6-(methyloxy)-2-(1-methylpropyl)-1,2,3,4-tetrahydro-7-isoquinolinyl]amino}-1H-pyrrolo[2,3-d]pyrimidin-4-yl)amino]benzamide]
> 1000 | > 1000 | 100 to 500 | < 100 | CNC(=O)c1c(F)cccc1Nc1nc(Nc2cc(N(C)C(=O)CN(C)C)ccc2OC)nc2[nH]ccc12 [Example 242, 2-[(2-{[5-[(N,N-dimethylglycyl)(methyl)amino]-2-(methyloxy)phenyl]amino}-1H-pyrrolo[2,3-d]pyrimidin-4-yl)amino]-6-fluoro-N-methylbenzamide]
< 250 | < 250 | < 100 | < 100 | COc1ccc(NC(=O)CN(C)C)cc1Nc1nc(Nc2cccc(F)c2C(N)=O)c2cc[nH]c2n1 [Example 244, 2-[(2-{[5-[(N,N-dimethylglycyl)amino]-2-(methyloxy)phenyl]amino}-1H-pyrrolo[2,3-d]pyrimidin-4-yl)amino]-6-fluorobenzamide]
250 to 1000 | 250 to 1000 | 100 to 500 | 100 to 500 | CNC(=O)c1c(F)cccc1Nc1nc(Nc2cc3c(cc2OC)CCN3C(=O)CN(C)C)nc2[nH]cc(C)c12 [Example 258, 2-[(2-{[1-(N,N-dimethylglycyl)-5-(methyloxy)-2,3-dihydro-1H-indol-6-yl]amino}-5-methyl-1H-pyrrolo[2,3-d]pyrimidin-4-yl)amino]-6-fluoro-N-methylbenzamide]
> 1000 | > 1000 | 100 to 500 | 100 to 500 | COc1cc2c(cc1Nc1nc(Nc3cccc(F)c3C(N)=O)c3cc(C)[nH]c3n1)N(C(=O)CN(C)C)CC2 [Example 262, 2-[(2-{[1-(N,N-dimethylglycyl)-5-(methyloxy)-2,3-dihydro-1H-indol-6-yl]amino}-6-methyl-1H-pyrrolo[2,3-d]pyrimidin-4-yl)amino]-6-fluorobenzamide]
